Experimental data published in US8097269B2, “Bioactive material delivery systems comprising sol-gel compositions” (Celonova Biosciences, Inc., priority 2004, dated 2012).

Key:
[1] = pH 5
Procedure: Referring to FIG. 4, elution of DAA-I from the TEOS coated stents was measured by analyzing the amount of DAA-I found in 0.1% solutol in ammonium acetate buffer, pH 5.0, as a function of time, when the stents were incubated in this medium at 37° C. The amount of DAA-I was determined by integrating the DAA-I peak in high performance liquid chromatography (HPLC) profiles using a Altima C-8 column (Altech, Chicago Ill.) and comparison to standard curves.

[2] = Elution of DAA-I from stents coated with increasing amounts of TEOS; format: physicochemical; conditions: 0.1-0.5M TEOS with constant DAA-I 1.25 mg/mL; effect of increasing TEOS to drug molar ratio; 9 mm stents; FIGS. 5A-5B
Procedure: To explore the effects of increasing the amount of TEOS on the rate of elution of DAA-I, increasing amounts, from 0.1-0.5M of TEOS were added to a constant amount of DAA-I (1.25 mg/mL) according to the methods and protocols described above. The stents (9 mm, n=4) were sprayed with each of the solutions as described above, weighed, and the amounts DAA-I eluted over a 24 hour period were compared.

des-aspartate angiotensin I [DAA-I]
rate of DAA-I elution [1]: slow the rate of DAA-I elution | rate of release of the drug into aqueous solution [2]: significantly delayed the rate of release
